Laboratory results reported in patent US11795199B2, “Peptide targeting Mycobacterium tuberculosis toxin-antitoxin system and use thereof” (Seoul National University R&DB Foundation, priority 2017, dated 2023).

Molecular target: VapBC26 protein complex (Mycobacterium tuberculosis, UniProt O53778)
Sequence (O53778 whole entry, one chain of several): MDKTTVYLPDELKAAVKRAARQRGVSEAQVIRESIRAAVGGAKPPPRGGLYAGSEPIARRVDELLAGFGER

Sequence: DAELAVLRELAG [mimetic peptide for VapC26 α4]
- concentration of VapBC26 from which the results of RFU were similar: ≥ 10 µM
- inhibition of VapBC26 toxin-antitoxin complex formation (binding inhibitor, seen as increased ribonuclease activity): acted as a VapBC26 binding inhibitor
- ribonuclease activity of VapBC26 compared with addition of SEQ. ID. NO: 11 and SEQ. ID. NO: 13 peptides: more increased

Sequence: PYVVAELDYLVATRVG [mimetic peptide for VapC26 α3]
- inhibition of VapBC26 toxin-antitoxin complex formation (binding inhibitor, seen as increased ribonuclease activity): acted as a VapBC26 binding inhibitor

Sequence: YLVATRVGVDAELAV
- inhibition of VapBC26 toxin-antitoxin complex formation (binding inhibitor, seen as increased ribonuclease activity): acted as a VapBC26 binding inhibitor
